Results reported in the supplement of paper PMC8671470.

tested on: myeloid leukemia patient primary cells Pat.8; assay: cell viability (% survival relative to DMSO control); higher = less cytotoxic; conditions: 10 nM; 72 h
How it was run: (§1)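 Thawed mononuclear cells from AML or CML patients were purified on Ficoll and cultured for 72 h in RPMI 1640 with 10% FBS, at 10,000 cells/well, on 384-well plates carrying 70 pre-printed compounds at 1–10,000 nM in five tenfold steps, in duplicate. Viability came from CellTiter-Glo, normalised against DMSO and against 10 μM proteasome inhibitor. Any area under the curve given was derived from log-logistic curve fits in the drc and PharmacoGx R packages, and these fits had four parameters.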

SMILES | cell viability
C=C1NC(=O)c2cc(CN(C)c3ccc(C(=O)N[C@@H](CCC(=O)O)C(=O)O)s3)ccc2N1 [Raltitrexed] | 85.5%

same assay, conditions: 100 nM; 72 h

SMILES | cell viability
NS(=O)(=O)c1ccc(S(=O)(=O)Nc2cccc3c(Cl)c[nH]c23)cc1 [Indisulam] | 97.5%
Cc1nnc(-c2ccc(N3CCC(Oc4ccccc4C(F)(F)F)CC3)nn2)s1 [MF-438] | 77.7%
CCCCCCCCCCCCC/C=C/[C@@H](O)[C@H](CO)N(C)C [N,N-Dimethylsphingosine] | 69%
Nc1nc(O)c2c(CCc3ccc(C(=O)N[C@@H](CCC(=O)O)C(=O)O)cc3)c[nH]c2n1 [Pemetrexed] | 89.8%
C=C1NC(=O)c2cc(CN(C)c3ccc(C(=O)N[C@@H](CCC(=O)O)C(=O)O)s3)ccc2N1 [Raltitrexed] | 87.2%

same assay, conditions: 1000 nM; 72 h

SMILES | cell viability
NS(=O)(=O)c1ccc(S(=O)(=O)Nc2cccc3c(Cl)c[nH]c23)cc1 [Indisulam] | 79.2%
Cc1nnc(-c2ccc(N3CCC(Oc4ccccc4C(F)(F)F)CC3)nn2)s1 [MF-438] | 86.9%
CCCCCCCCCCCCC/C=C/[C@@H](O)[C@H](CO)N(C)C [N,N-Dimethylsphingosine] | 92.9%
Nc1nc(O)c2c(CCc3ccc(C(=O)N[C@@H](CCC(=O)O)C(=O)O)cc3)c[nH]c2n1 [Pemetrexed] | 78.1%
C=C1NC(=O)c2cc(CN(C)c3ccc(C(=O)N[C@@H](CCC(=O)O)C(=O)O)s3)ccc2N1 [Raltitrexed] | 87.3%

same assay, conditions: 10000 nM; 72 h

SMILES | cell viability
NS(=O)(=O)c1ccc(S(=O)(=O)Nc2cccc3c(Cl)c[nH]c23)cc1 [Indisulam] | 55.5%
Cc1nnc(-c2ccc(N3CCC(Oc4ccccc4C(F)(F)F)CC3)nn2)s1 [MF-438] | 94.9%
CCCCCCCCCCCCC/C=C/[C@@H](O)[C@H](CO)N(C)C [N,N-Dimethylsphingosine] | 0.0301%
Nc1nc(O)c2c(CCc3ccc(C(=O)N[C@@H](CCC(=O)O)C(=O)O)cc3)c[nH]c2n1 [Pemetrexed] | 87.6%
C=C1NC(=O)c2cc(CN(C)c3ccc(C(=O)N[C@@H](CCC(=O)O)C(=O)O)s3)ccc2N1 [Raltitrexed] | > 100%

tested on: myeloid leukemia patient primary cells Pat.4; assay: as above; conditions: 1 nM; 72 h
How it was run: as §1

SMILES | cell viability
NS(=O)(=O)c1ccc(S(=O)(=O)Nc2cccc3c(Cl)c[nH]c23)cc1 [Indisulam] | 91.4%
Cc1nnc(-c2ccc(N3CCC(Oc4ccccc4C(F)(F)F)CC3)nn2)s1 [MF-438] | 83.7%
CCCCCCCCCCCCC/C=C/[C@@H](O)[C@H](CO)N(C)C [N,N-Dimethylsphingosine] | 98.5%
Nc1nc(O)c2c(CCc3ccc(C(=O)N[C@@H](CCC(=O)O)C(=O)O)cc3)c[nH]c2n1 [Pemetrexed] | > 100%
C=C1NC(=O)c2cc(CN(C)c3ccc(C(=O)N[C@@H](CCC(=O)O)C(=O)O)s3)ccc2N1 [Raltitrexed] | 80.7%

same assay, conditions: 10 nM; 72 h

SMILES | cell viability
NS(=O)(=O)c1ccc(S(=O)(=O)Nc2cccc3c(Cl)c[nH]c23)cc1 [Indisulam] | 87.2%
Cc1nnc(-c2ccc(N3CCC(Oc4ccccc4C(F)(F)F)CC3)nn2)s1 [MF-438] | 98.5%
CCCCCCCCCCCCC/C=C/[C@@H](O)[C@H](CO)N(C)C [N,N-Dimethylsphingosine] | 80.5%
Nc1nc(O)c2c(CCc3ccc(C(=O)N[C@@H](CCC(=O)O)C(=O)O)cc3)c[nH]c2n1 [Pemetrexed] | 93.8%
C=C1NC(=O)c2cc(CN(C)c3ccc(C(=O)N[C@@H](CCC(=O)O)C(=O)O)s3)ccc2N1 [Raltitrexed] | > 100%

same assay, conditions: 100 nM; 72 h

SMILES | cell viability
NS(=O)(=O)c1ccc(S(=O)(=O)Nc2cccc3c(Cl)c[nH]c23)cc1 [Indisulam] | 86%
Cc1nnc(-c2ccc(N3CCC(Oc4ccccc4C(F)(F)F)CC3)nn2)s1 [MF-438] | 87.9%
CCCCCCCCCCCCC/C=C/[C@@H](O)[C@H](CO)N(C)C [N,N-Dimethylsphingosine] | 78.5%
Nc1nc(O)c2c(CCc3ccc(C(=O)N[C@@H](CCC(=O)O)C(=O)O)cc3)c[nH]c2n1 [Pemetrexed] | 93.1%
C=C1NC(=O)c2cc(CN(C)c3ccc(C(=O)N[C@@H](CCC(=O)O)C(=O)O)s3)ccc2N1 [Raltitrexed] | 94.1%

same assay, conditions: 1000 nM; 72 h

SMILES | cell viability
NS(=O)(=O)c1ccc(S(=O)(=O)Nc2cccc3c(Cl)c[nH]c23)cc1 [Indisulam] | 28%
Cc1nnc(-c2ccc(N3CCC(Oc4ccccc4C(F)(F)F)CC3)nn2)s1 [MF-438] | 85.8%
CCCCCCCCCCCCC/C=C/[C@@H](O)[C@H](CO)N(C)C [N,N-Dimethylsphingosine] | 74%
Nc1nc(O)c2c(CCc3ccc(C(=O)N[C@@H](CCC(=O)O)C(=O)O)cc3)c[nH]c2n1 [Pemetrexed] | 67.3%
C=C1NC(=O)c2cc(CN(C)c3ccc(C(=O)N[C@@H](CCC(=O)O)C(=O)O)s3)ccc2N1 [Raltitrexed] | 97.6%

same assay, conditions: 10000 nM; 72 h

SMILES | cell viability
NS(=O)(=O)c1ccc(S(=O)(=O)Nc2cccc3c(Cl)c[nH]c23)cc1 [Indisulam] | 9.12%
Cc1nnc(-c2ccc(N3CCC(Oc4ccccc4C(F)(F)F)CC3)nn2)s1 [MF-438] | 68.8%
CCCCCCCCCCCCC/C=C/[C@@H](O)[C@H](CO)N(C)C [N,N-Dimethylsphingosine] | 5.51%
Nc1nc(O)c2c(CCc3ccc(C(=O)N[C@@H](CCC(=O)O)C(=O)O)cc3)c[nH]c2n1 [Pemetrexed] | 82.8%
C=C1NC(=O)c2cc(CN(C)c3ccc(C(=O)N[C@@H](CCC(=O)O)C(=O)O)s3)ccc2N1 [Raltitrexed] | > 100%

tested on: myeloid leukemia patient primary cells Pat.1; assay: as above; conditions: 1 nM; 72 h
How it was run: as §1

SMILES | cell viability
NS(=O)(=O)c1ccc(S(=O)(=O)Nc2cccc3c(Cl)c[nH]c23)cc1 [Indisulam] | 94.5%
Cc1nnc(-c2ccc(N3CCC(Oc4ccccc4C(F)(F)F)CC3)nn2)s1 [MF-438] | 78.8%
CCCCCCCCCCCCC/C=C/[C@@H](O)[C@H](CO)N(C)C [N,N-Dimethylsphingosine] | > 100%
Nc1nc(O)c2c(CCc3ccc(C(=O)N[C@@H](CCC(=O)O)C(=O)O)cc3)c[nH]c2n1 [Pemetrexed] | > 100%
C=C1NC(=O)c2cc(CN(C)c3ccc(C(=O)N[C@@H](CCC(=O)O)C(=O)O)s3)ccc2N1 [Raltitrexed] | 79.1%

same assay, conditions: 10 nM; 72 h

SMILES | cell viability
NS(=O)(=O)c1ccc(S(=O)(=O)Nc2cccc3c(Cl)c[nH]c23)cc1 [Indisulam] | > 100%
Cc1nnc(-c2ccc(N3CCC(Oc4ccccc4C(F)(F)F)CC3)nn2)s1 [MF-438] | 85.8%
CCCCCCCCCCCCC/C=C/[C@@H](O)[C@H](CO)N(C)C [N,N-Dimethylsphingosine] | 92.6%
Nc1nc(O)c2c(CCc3ccc(C(=O)N[C@@H](CCC(=O)O)C(=O)O)cc3)c[nH]c2n1 [Pemetrexed] | 99.3%
C=C1NC(=O)c2cc(CN(C)c3ccc(C(=O)N[C@@H](CCC(=O)O)C(=O)O)s3)ccc2N1 [Raltitrexed] | 96.9%

same assay, conditions: 100 nM; 72 h

SMILES | cell viability
NS(=O)(=O)c1ccc(S(=O)(=O)Nc2cccc3c(Cl)c[nH]c23)cc1 [Indisulam] | 94.1%
Cc1nnc(-c2ccc(N3CCC(Oc4ccccc4C(F)(F)F)CC3)nn2)s1 [MF-438] | 97.1%
CCCCCCCCCCCCC/C=C/[C@@H](O)[C@H](CO)N(C)C [N,N-Dimethylsphingosine] | 79.6%
Nc1nc(O)c2c(CCc3ccc(C(=O)N[C@@H](CCC(=O)O)C(=O)O)cc3)c[nH]c2n1 [Pemetrexed] | > 100%
C=C1NC(=O)c2cc(CN(C)c3ccc(C(=O)N[C@@H](CCC(=O)O)C(=O)O)s3)ccc2N1 [Raltitrexed] | 99.9%

same assay, conditions: 1000 nM; 72 h

SMILES | cell viability
NS(=O)(=O)c1ccc(S(=O)(=O)Nc2cccc3c(Cl)c[nH]c23)cc1 [Indisulam] | 65.2%
Cc1nnc(-c2ccc(N3CCC(Oc4ccccc4C(F)(F)F)CC3)nn2)s1 [MF-438] | 90.5%
CCCCCCCCCCCCC/C=C/[C@@H](O)[C@H](CO)N(C)C [N,N-Dimethylsphingosine] | 74.3%
